Results published in US20090181080A1, “Oral cannabinnoid liquid formulations and methods of treatment” (Insys Therapeutics Inc., priority 2007, published 2009).

Assay: Threshold concentration versus duration of effect analysis of Example 35 data
Assay type: in vivo, human
Description: In Example 38, the individual concentration-time profiles for soft gelatin capsules of Example 35 were analyzed to identify the mean duration of effect in that subject population, for a range of threshold concentrations (e.g., minimum effective concentrations). The results are depicted in FIG. 4.

[1] = 5 mg dose, by dose-proportional scaling
[2] = dose of 10 mg dronabinol, soft gelatin capsules of Example 35 data

CCCCCc1cc(O)c2c(c1)OC(C)(C)[C@@H]1CCC(C)=C[C@@H]21 [dronabinol, Delta-9-Tetrahydrocannabinol]
threshold concentration for a 4 hour duration of effect [1]: approximately 0.28 ng/mL | threshold concentration for a 6 hour duration of effect [1]: ~0.12 ng/mL | threshold concentration required for a 4 hour duration of effect [2]: approximately 0.56 ng/mL | threshold concentration required for a 6 hour duration of action [2]: approximately 0.24 ng/mL
